Measurements from patent US6737383B1, “Herbicidal oxadiazolidines” (priority 1999, dated 2004).

Columns and labels:
bedstraw = assay: Test B pre/postemergence bedstraw; type: in vivo, Galium aparine
Outline: (§1)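 Herbicidal effect was estimated by eye on a ten-point control scale after plants spent twelve to sixteen days in a greenhouse following soil or foliar treatment. Foliar sprays targeted plants at one to four leaves; all doses were formulated in a non-phytotoxic solvent with surfactant.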

blackgrass = assay: Test B pre/postemergence blackgrass; type: in vivo, Alopecurus myosuroides
Outline: as §1

surinam grass = assay: Test B pre/postemergence surinam grass; type: in vivo, Brachiaria decumbens
Outline: as §1

bamyardgrass = assay: Test B flood test barnyardgrass; type: in vivo, Echinochloa crus-galli; settings: for Plant response rating, Barnyardgrass (0 to 10 scale, 0 is no effect, 10 is complete control) / Barnyardgrass plant response rating (0 to 10 scale, 0 is no effect, 10 is complete control): visual evaluation after twelve to sixteen days; for Barnyardgrass plant response rating (0 to 10 scale, 0 is no effect, 10 is complete control): under heading Pre-emergence
Outline: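 Each value is a visual injury score relative to controls, with 10 meaning complete control and 0 no effect. Evaluation took place twelve to sixteen days after the 2-leaf-stage plants were treated and kept in the greenhouse.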

[1] = Postemergence, Rate 125 g/ha, scale 0 to 10, 0 is no effect, 10 is complete control
[2] = Postemergence, Rate 250 g/ha, scale 0 to 10, 0 is no effect, 10 is complete control
[3] = Postemergence, Rate 500 g/ha, scale of 0 to 10 where 0 is no effect and 10 is complete control
[4] = Preemergence, Rate 62 g/ha, scale 0 to 10 (0 no effect, 10 complete control)
[5] = Preemergence, Rate 125 g/ha, scale of 0 to 10 where 0 is no effect and 10 is complete control
[6] = Preemergence, Rate 500 g/ha, scale 0 to 10, 0 is no effect, 10 is complete control
[7] = Rate 62 g/ha, Postemergence, scale of 0 to 10 where 0 is no effect and 10 is complete control
[8] = Preemergence, Rate 250 g/ha, scale of 0 to 10 where 0 is no effect and 10 is complete control
[9] = Preemergence, Rate 500 g/ha, scale of 0 to 10 where 0 is no effect and 10 is complete control
[10] = Rate 62 g/ha, flood test species, Pre-emergence
[11] = Rate 125 g/ha, flood test species
[12] = Rate 500 g/ha, Pre-emergence, flood test species, scale 0 to 10 (0 no effect, 10 complete control)
[13] = Postemergence, Rate 125 g/ha, scale of 0 to 10 where 0 is no effect and 10 is complete control
[14] = Preemergence, Rate 125 g/ha, 0 is no effect, 10 is complete control
[15] = Preemergence, Rate 250 g/ha, scale 0 to 10, 0 is no effect, 10 is complete control
[16] = Preemergence, Rate 500 g/ha, scale 0 to 10 (0 no effect, 10 complete control)
[17] = Rate 250 g/ha, Postemergence, scale 0 to 10, 0 is no effect, 10 is complete control
[18] = Postemergence, Rate 62 g/ha, scale 0 to 10, 0 is no effect, 10 is complete control
[19] = Postemergence, Rate 250 g/ha, scale of 0 to 10, 0 is no effect, 10 is complete control
[20] = Preemergence, Rate 62 g/ha, scale of 0 to 10 where 0 is no effect and 10 is complete control
[21] = Preemergence, Rate 250 g/ha, scale 0 to 10 (0 no effect, 10 complete control)
[22] = Rate 250 g/ha, Pre-emergence (flood test species), scale 0 to 10, 0 is no effect, 10 is complete control
[23] = Postemergence, Rate 250 g/ha, scale 0 to 10
[24] = Rate 125 g/ha, Postemergence, scale 0 to 10, 0 is no effect, 10 is complete control
[25] = Rate 1000 g/ha, Preemergence, scale 0 to 10 (0 no effect, 10 complete control)
[26] = Postemergence, Rate 1000 g/ha, scale 0 to 10 (0 no effect, 10 complete control)

CC1CC1Cn1c(=O)on(C(=O)N(c2ccc(F)cc2)C(C)C)c1=O (centres unmarked) [Compound 402]
5: B. signalgrass plant response rating (surinam grass; [3]) | Plant response rating, Barnyardgrass (0 to 10 scale, 0 is no effect, 10 is complete control) (bamyardgrass; [10]) | Barnyardgrass plant response rating (0 to 10 scale, 0 is no effect, 10 is complete control) (bamyardgrass; [11])
4: B. signalgrass plant response rating (surinam grass; [8])
3: Plant response rating, Bedstraw (bedstraw; [1]) | Plant response rating, Bedstraw (bedstraw; [5]) | Bedstraw plant response rating (bedstraw; [7]) | Plant response rating, Blackgrass (blackgrass; [4]) | Plant response rating, B. signalgrass (surinam grass; [5])
10: Bedstraw plant response rating (bedstraw; [6]) | Blackgrass plant response rating (blackgrass; [6])
0: Plant response rating, B. signalgrass (surinam grass; [4]) | B. signalgrass plant response rating (surinam grass; [7])
8: Bedstraw plant response rating (bedstraw; [3]) | Barnyardgrass plant response rating (bamyardgrass; Rate 250 g/ha, Pre-emergence, flood-test species, scale 0 to 10, 0 is no effect, 10 is complete control)
9: Blackgrass plant response rating (blackgrass; [3]) | Blackgrass plant response rating (blackgrass; [8]) | B. signalgrass plant response rating (surinam grass; [9]) | Barnyardgrass plant response rating (bamyardgrass; [12])
7: Plant response rating, Bedstraw (bedstraw; [2]) | Plant response rating, Blackgrass (blackgrass; [5])
2: Plant response rating, Bedstraw (bedstraw; [4]) | Plant response rating, B. signalgrass (surinam grass; [1]) | Plant response rating, B. signalgrass (surinam grass; [2])

COc1ccccc1Cn1c(=O)on(C(=O)N(c2ccc(F)cc2)C(C)C)c1=O [Compound 143]
0: Bedstraw plant response rating (bedstraw; [4]) | Bedstraw plant response rating (0 to 10 scale) (bedstraw; [14]) | Bedstraw plant response rating (bedstraw; [15]) | Bedstraw plant response rating (bedstraw; [16]) | B. signalgrass plant response rating (surinam grass; [13]) | B. signalgrass plant response rating (surinam grass; [4]) | B. signalgrass plant response rating (0 to 10 scale) (surinam grass; [14]) | B. signalgrass plant response rating (surinam grass; [7]) | Plant response rating, B. signalgrass (surinam grass; [17]) | Barnyardgrass plant response rating (bamyardgrass; Rate 62 g/ha, Postemergence section, flood test species, scale of 0 to 10 where 0 is no effect and 10 is complete control)
8: Bedstraw plant response rating (bedstraw; Rate 500 g/ha, Postemergence, scale 0 to 10, 0 no effect, 10 complete control) | Blackgrass plant response rating (blackgrass; Rate 500 g/ha, Postemergence, scale 0 to 10) | Barnyardgrass plant response rating (bamyardgrass; Postemergence (flood test species), Rate 125 g/ha, scale of 0 to 10 where 0 is no effect and 10 is complete control) | Plant response rating, Barnyardgrass (bamyardgrass; Rate 250 g/ha, Postemergence (flood test), scale 0 to 10, 0 is no effect, 10 is complete control)
4: Blackgrass plant response rating (blackgrass; [4])
2: B. signalgrass plant response rating (surinam grass; [15])
10: Barnyardgrass plant response rating (bamyardgrass; Rate 500 g/ha, listed under Postemergence (flood test species), scale 0 to 10, 0 no effect, 10 complete control)
3: Blackgrass plant response rating (blackgrass; [13]) | Blackgrass plant response rating (blackgrass; [7])
5: Bedstraw plant response rating (bedstraw; [7]) | Blackgrass plant response rating (0 to 10 scale) (blackgrass; [14]) | Blackgrass plant response rating (blackgrass; [15]) | Plant response rating, Blackgrass (blackgrass; [17]) | B. signalgrass plant response rating (surinam grass; [16]) | B. signalgrass plant response rating (surinam grass; Rate 500 g/ha, Postemergence, scale of 0 to 10 where 0 is no effect and 10 is complete control)
6: Bedstraw plant response rating (bedstraw; [13]) | Plant response rating, Bedstraw (bedstraw; [17]) | Blackgrass plant response rating (blackgrass; [16])

CC(C)N(C(=O)n1oc(=O)n(Cc2nnc(Cl)s2)c1=O)c1ccc(F)cc1 [Compound 646]
0: Plant response rating, Bedstraw (bedstraw; [18]) | Bedstraw plant response rating (bedstraw; [19]) | Bedstraw plant response rating (bedstraw; [20]) | Plant response rating, Blackgrass (blackgrass; [18]) | Blackgrass plant response rating (blackgrass; [13]) | Blackgrass plant response rating (blackgrass; [19]) | Plant response rating, Blackgrass (blackgrass; [3]) | Blackgrass plant response rating (blackgrass; [20]) | Blackgrass plant response rating (blackgrass; [5]) | Plant response rating, Blackgrass (blackgrass; [21]) | Plant response rating, Blackgrass (blackgrass; [9]) | Plant response rating, B. signalgrass (surinam grass; [18]) | Plant response rating, B. signalgrass (surinam grass; [13]) | B. signalgrass plant response rating (surinam grass; [19]) | Plant response rating, B. signalgrass (surinam grass; [3]) | B. signalgrass plant response rating (surinam grass; [20]) | B. signalgrass plant response rating (surinam grass; [5]) | Plant response rating, B. signalgrass (surinam grass; [21]) | Plant response rating, B. signalgrass (surinam grass; [9]) | Plant response rating, Barnyardgrass (0 to 10 scale, 0 is no effect, 10 is complete control) (bamyardgrass; [10]) | Barnyardgrass plant response rating (0 to 10 scale, 0 is no effect, 10 is complete control) (bamyardgrass; [11]) | Barnyardgrass plant response rating (bamyardgrass; [22]) | Barnyardgrass plant response rating (bamyardgrass; Rate 500 g/ha, Pre-emergence section of Table B, 0 to 10 scale (0 no effect, 10 complete control))

CCOP(=O)(OCC)C(C)n1c(=O)on(C(=O)N(c2ccccc2)C(C)C)c1=O (centres unmarked) [Compound 448]
2: Blackgrass plant response rating (blackgrass; [26]) | Blackgrass plant response rating (blackgrass; [6]) | B. signalgrass plant response rating (surinam grass; [6])
4: Plant response rating, Blackgrass (blackgrass; [25]) | Plant response rating, B. signalgrass (surinam grass; [25])
0: Bedstraw plant response rating (bedstraw; [23]) | Plant response rating, Bedstraw (bedstraw; [5]) | Bedstraw plant response rating (bedstraw; [15]) | Bedstraw plant response rating (bedstraw; [6]) | Bedstraw plant response rating (bedstraw; [24]) | Plant response rating, Bedstraw (bedstraw; [25]) | Blackgrass plant response rating (blackgrass; [23]) | Blackgrass plant response rating (blackgrass; [3]) | Plant response rating, Blackgrass (blackgrass; [5]) | Blackgrass plant response rating (blackgrass; [15]) | Blackgrass plant response rating (blackgrass; [24]) | B. signalgrass plant response rating (surinam grass; Postemergence, Rate 250 g/ha, scale 0 to 10, 0 no effect, 10 complete control) | B. signalgrass plant response rating (surinam grass; [3]) | B. signalgrass plant response rating (surinam grass; [26]) | Plant response rating, B. signalgrass (surinam grass; [5]) | B. signalgrass plant response rating (surinam grass; [15]) | B. signalgrass plant response rating (surinam grass; [24]) | Barnyardgrass plant response rating (bamyardgrass; Pre-emergence, Rate 1000 g/ha, scale 0 to 10 (0 no effect, 10 complete control)) | Barnyardgrass plant response rating (0 to 10 scale, 0 is no effect, 10 is complete control) (bamyardgrass; [11]) | Barnyardgrass plant response rating (bamyardgrass; [22]) | Barnyardgrass plant response rating (bamyardgrass; [12])
